Measured values as given in the CheMixHub viscosity set.

Test: xn = mol fraction of the nth substance listed

CC(C)(C)O + CCCCCCCC
viscosity [mPa·s], 101 kPa
Conditions | x1 = 0.8499 | x1 = 0.9 | x1 = 0.9235
303.15 K | – | – | 2.015
313.15 K | 1.075 | 1.275 | –

CCCC(=O)OC + CCCCCCCC
101.33 kPa
Conditions | viscosity [mPa·s]
293.15 K, x1 = 0.0893 | 0.53
293.15 K, x1 = 0.137 | 0.525
293.15 K, x1 = 0.2169 | 0.519
293.15 K, x1 = 0.3101 | 0.514
293.15 K, x1 = 0.3906 | 0.514
293.15 K, x1 = 0.5062 | 0.516
293.15 K, x1 = 0.6094 | 0.522
293.15 K, x1 = 0.6977 | 0.529
293.15 K, x1 = 0.795 | 0.54
293.15 K, x1 = 0.8572 | 0.55
293.15 K, x1 = 0.9222 | 0.562
303.15 K, x1 = 0.1392 | 0.468
303.15 K, x1 = 0.2271 | 0.462
303.15 K, x1 = 0.315 | 0.459
303.15 K, x1 = 0.4073 | 0.458
303.15 K, x1 = 0.5146 | 0.459
303.15 K, x1 = 0.607 | 0.464
303.15 K, x1 = 0.6957 | 0.47
303.15 K, x1 = 0.7994 | 0.48
303.15 K, x1 = 0.8631 | 0.488
303.15 K, x1 = 0.9198 | 0.497
313.15 K, x1 = 0.07444 | 0.425
313.15 K, x1 = 0.1338 | 0.42
313.15 K, x1 = 0.2249 | 0.416
313.15 K, x1 = 0.3123 | 0.413
313.15 K, x1 = 0.3936 | 0.411
313.15 K, x1 = 0.4968 | 0.413
313.15 K, x1 = 0.6049 | 0.417
313.15 K, x1 = 0.6981 | 0.423
313.15 K, x1 = 0.8007 | 0.432
313.15 K, x1 = 0.866 | 0.439
313.15 K, x1 = 0.9319 | 0.448

CCCCOC(=O)c1ccccc1 + CCCCCCCC
101 kPa
Conditions | viscosity [mPa·s]
298.15 K, x2 = 0.0819 | 2.313
298.15 K, x2 = 0.1257 | 2.139
298.15 K, x2 = 0.1681 | 1.973
298.15 K, x2 = 0.2263 | 1.771
298.15 K, x2 = 0.2749 | 1.61
298.15 K, x2 = 0.3195 | 1.476
298.15 K, x2 = 0.3719 | 1.339
298.15 K, x2 = 0.4121 | 1.246
298.15 K, x2 = 0.473 | 1.117
298.15 K, x2 = 0.5153 | 1.038
298.15 K, x2 = 0.5596 | 0.971
298.15 K, x2 = 0.6051 | 0.9
298.15 K, x2 = 0.6559 | 0.827
298.15 K, x2 = 0.7053 | 0.772
298.15 K, x2 = 0.7427 | 0.729
298.15 K, x2 = 0.794 | 0.674
298.15 K, x2 = 0.8349 | 0.635
298.15 K, x2 = 0.8859 | 0.591
298.15 K, x2 = 0.9357 | 0.552
308.15 K, x2 = 0.0945 | 1.866
308.15 K, x2 = 0.1325 | 1.737
308.15 K, x2 = 0.1853 | 1.579
308.15 K, x2 = 0.2276 | 1.465
308.15 K, x2 = 0.2687 | 1.364
308.15 K, x2 = 0.3288 | 1.233
308.15 K, x2 = 0.3769 | 1.139
308.15 K, x2 = 0.4139 | 1.073
308.15 K, x2 = 0.4741 | 0.975
308.15 K, x2 = 0.5134 | 0.916
308.15 K, x2 = 0.5651 | 0.848
308.15 K, x2 = 0.6054 | 0.797
308.15 K, x2 = 0.6525 | 0.743
308.15 K, x2 = 0.7052 | 0.688
308.15 K, x2 = 0.7478 | 0.649
308.15 K, x2 = 0.7925 | 0.61
308.15 K, x2 = 0.8351 | 0.577
308.15 K, x2 = 0.8734 | 0.549
308.15 K, x2 = 0.9291 | 0.514
318.15 K, x2 = 0.0361 | 1.714
318.15 K, x2 = 0.0929 | 1.554
318.15 K, x2 = 0.1407 | 1.438
318.15 K, x2 = 0.196 | 1.309
318.15 K, x2 = 0.2419 | 1.215
318.15 K, x2 = 0.2984 | 1.108
318.15 K, x2 = 0.346 | 1.027
318.15 K, x2 = 0.4006 | 0.943
318.15 K, x2 = 0.4467 | 0.878
318.15 K, x2 = 0.499 | 0.812
318.15 K, x2 = 0.5446 | 0.759
318.15 K, x2 = 0.5955 | 0.706
318.15 K, x2 = 0.6382 | 0.665
318.15 K, x2 = 0.6905 | 0.619
318.15 K, x2 = 0.7358 | 0.584
318.15 K, x2 = 0.7849 | 0.546
318.15 K, x2 = 0.8274 | 0.518
318.15 K, x2 = 0.8768 | 0.488
318.15 K, x2 = 0.9193 | 0.464

CC(C)(C)O + CCCCCCCCCC
Conditions | viscosity [mPa·s]
323.15 K, 101 kPa, x1 = 0.9499 | 1.155

CCCCOC(=O)c1ccccc1 + CCCCCCCCCC
101 kPa
Conditions | viscosity [mPa·s]
298.15 K, x2 = 0.0918 | 2.334
298.15 K, x2 = 0.1358 | 2.183
298.15 K, x2 = 0.1792 | 2.041
298.15 K, x2 = 0.2262 | 1.896
298.15 K, x2 = 0.2664 | 1.788
298.15 K, x2 = 0.3097 | 1.678
298.15 K, x2 = 0.3591 | 1.567
298.15 K, x2 = 0.4089 | 1.47
298.15 K, x2 = 0.4486 | 1.401
298.15 K, x2 = 0.4948 | 1.329
298.15 K, x2 = 0.5503 | 1.25
298.15 K, x2 = 0.5873 | 1.204
298.15 K, x2 = 0.6281 | 1.153
298.15 K, x2 = 0.6957 | 1.077
298.15 K, x2 = 0.741 | 1.032
298.15 K, x2 = 0.7899 | 0.988
298.15 K, x2 = 0.8403 | 0.946
298.15 K, x2 = 0.8939 | 0.908
298.15 K, x2 = 0.9566 | 0.87
308.15 K, x2 = 0.0669 | 1.981
308.15 K, x2 = 0.1091 | 1.855
308.15 K, x2 = 0.1542 | 1.738
308.15 K, x2 = 0.1965 | 1.637
308.15 K, x2 = 0.245 | 1.534
308.15 K, x2 = 0.2934 | 1.443
308.15 K, x2 = 0.3293 | 1.381
308.15 K, x2 = 0.3765 | 1.306
308.15 K, x2 = 0.4326 | 1.224
308.15 K, x2 = 0.4647 | 1.182
308.15 K, x2 = 0.5148 | 1.12
308.15 K, x2 = 0.563 | 1.063
308.15 K, x2 = 0.6162 | 1.008
308.15 K, x2 = 0.6547 | 0.972
308.15 K, x2 = 0.7081 | 0.924
308.15 K, x2 = 0.7512 | 0.891
308.15 K, x2 = 0.8136 | 0.846
308.15 K, x2 = 0.8573 | 0.818
308.15 K, x2 = 0.9215 | 0.783
318.15 K, x2 = 0.0724 | 1.636
318.15 K, x2 = 0.0793 | 1.618
318.15 K, x2 = 0.1214 | 1.527
318.15 K, x2 = 0.1698 | 1.43
318.15 K, x2 = 0.2143 | 1.349
318.15 K, x2 = 0.2625 | 1.268
318.15 K, x2 = 0.3071 | 1.201
318.15 K, x2 = 0.3576 | 1.129
318.15 K, x2 = 0.4024 | 1.073
318.15 K, x2 = 0.4543 | 1.013
318.15 K, x2 = 0.4998 | 0.966
318.15 K, x2 = 0.551 | 0.917
318.15 K, x2 = 0.5985 | 0.876
318.15 K, x2 = 0.6498 | 0.834
318.15 K, x2 = 0.6927 | 0.804
318.15 K, x2 = 0.7509 | 0.764
318.15 K, x2 = 0.8026 | 0.733
318.15 K, x2 = 0.901 | 0.682
318.15 K, x2 = 0.9265 | 0.673
